Four molecules from paper PMC2527810, “[^18F]FDG and [^18F]FLT uptake in human breast cancer cells in relation to the effects of chemotherapy: an in vitro study” (British Journal of Cancer, 2008) can be followed below.

Data set [1] deals with cellular TK activities (MDA MB231 cell lysates). The data set can be described thus: Inhibition of cellular TK activity by TK-2 inhibitors added to cell lysates. As to conditions: dCTP 10 μM added to cell lysates. The format is biochemical, human. As to the method:
(§1) Cell pellets were suspended in 50 mM Tris/1 mM EDTA (pH 7.4) and sonificated on ice. Lysates were spun down and supernatant diluted 1 : 8 in 50 mM Tris/1 mM EDTA (pH 7.4).
(§2) 3′-deoxy-3′-[^18F]fluorothymidine was diluted with 50 mM Tris/1 mM EDTA (pH 7.4) and 1 : 1 mixed with 20 mM ATP, 10 mM MgCl2, resulting in an FLT concentration of about 60 MBq ml^−1 (6.32–18.89 pmol per sample). […] was inhibited by addition of dCTP or the specific TK-2 inhibitor KIN52 (final concentration 2 μM) ([Balzarini et al, 2003]).
(§3) The assay was optimised for protein concentration and incubation times. Diluted cell lysates or purified TK-2 (kindly provided by A. Karlsson, Karolinska Institute, Stockholm, Sweden) were incubated with the FLT mixture for 15 min at 37°C and the reaction was stopped by heating the samples at 95°C for 5 min. Substrate (FLT) and product (FLT-phosphate) were separated by TLC and radioactivity was measured in a single-well gamma counter (Wallac1480 Wizard, Perkin Elmer Lifescience, MA, USA). Protein concentrations were measured in a Bio-Rad Bradford protein assay (Bio-Rad Laboratories, Hercules, CA, USA). Thymidine kinase activity was calculated as the amount of FLT converted into FLT-phosphate per hour per million cells (nmol h^−1 10^−6 cells).

A further data set deals with T1, purified TK-2 (Homo sapiens, UniProt O00142).
T1 construct: gift: A. Karlsson, Karolinska Institute, Stockholm, Sweden
T1 sequence (O00142 34-265): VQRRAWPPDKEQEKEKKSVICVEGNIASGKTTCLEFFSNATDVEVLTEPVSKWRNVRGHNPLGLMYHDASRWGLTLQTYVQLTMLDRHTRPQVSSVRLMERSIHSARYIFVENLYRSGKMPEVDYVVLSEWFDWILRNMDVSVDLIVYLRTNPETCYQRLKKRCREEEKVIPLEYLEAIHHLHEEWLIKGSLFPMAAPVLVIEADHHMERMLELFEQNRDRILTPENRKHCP
The data set can be described thus: FLT phosphorylation by purified TK-2. The format is biochemical. The procedure: as §2, §3

Data set [2] has as its target T2, recombinant mitochondrial TK-2 (Homo sapiens, UniProt O00142).
T2 sequence (O00142 34-265): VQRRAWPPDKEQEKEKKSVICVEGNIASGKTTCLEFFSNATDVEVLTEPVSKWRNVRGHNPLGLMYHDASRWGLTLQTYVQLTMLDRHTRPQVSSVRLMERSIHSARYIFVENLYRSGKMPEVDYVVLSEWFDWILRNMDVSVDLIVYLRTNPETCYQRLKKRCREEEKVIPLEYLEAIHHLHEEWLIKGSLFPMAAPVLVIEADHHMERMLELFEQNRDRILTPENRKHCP
The data set can be described thus: Phosphorylation of [CH3-3H]dThd by recombinant TK-2. The format is biochemical. The procedure: (§4) […] A 50 μl reaction mixture, containing 50 mM Tris-HCl, pH 8.0, 2.5 mM MgCl2, 10 mM dithiothreitol, 2.5 mM ATP, 1.0 mg ml^−1 bovine serum albumin, 10 mM NaF, [CH3-^3H]dThd (0.1 μCi in 5 μl; 1 μM final concentration) and 5 μl of recombinant enzyme, was incubated at 37°C for 30 min in the presence or absence of different concentrations of dCTP or KIN52. During this time, the enzyme reaction proceeded linearly. Formation of tritiated dTMP was measured by spotting aliquots of the reaction mixture on Whatman DE-81 filter paper disks, as described earlier ([Balzarini et al, 2003]).

Data set [3] has as its target T3, recombinant cytosolic TK-1 (Homo sapiens, UniProt P04183).
T3 sequence (P04183 1-234): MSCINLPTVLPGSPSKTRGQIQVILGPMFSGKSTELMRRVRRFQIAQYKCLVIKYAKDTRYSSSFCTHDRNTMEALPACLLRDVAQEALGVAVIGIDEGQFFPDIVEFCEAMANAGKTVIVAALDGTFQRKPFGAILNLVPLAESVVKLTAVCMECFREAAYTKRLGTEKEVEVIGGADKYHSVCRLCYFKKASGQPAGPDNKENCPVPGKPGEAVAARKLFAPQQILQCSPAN
The data set can be described thus: Phosphorylation of [CH3-3H]dThd by recombinant TK-1. The format is biochemical. The procedure: A 50 μl reaction mixture, containing 50 mM Tris-HCl, pH 8.0, 2.5 mM MgCl2, 10 mM dithiothreitol, 2.5 mM ATP, 1.0 mg ml^−1 bovine serum albumin, 10 mM NaF, [CH3-^3H]dThd (0.1 μCi in 5 μl; 1 μM final concentration) and 5 μl of recombinant enzyme, was incubated at 37°C for 30 min in the presence or absence of different concentrations of dCTP or KIN52.

Data set [4] concerns MDA MB231 cells. The data set can be described thus: Separation of cellular FLT and FLT-phosphate by TLC. The format is cell-based, human. As to conditions: one hour after adding FLT. An excerpt:
To discriminate between FLT and FLT-phosphate, cells in another identical plate were harvested and after stopping the enzyme reaction, cells were sonificated and spun down. 3′-deoxy-3′-[^18F]fluorothymidine and FLT-phosphate, present in the supernatant were separated as described above (section TK enzyme activity).

Data set [5] relates to MDA MB231 cells. Description: Cellular FDG uptake after drug incubation. The format is cell-based, human. The following applies: IC50 concentration. The procedure:
(§5) Cells were plated in six identical 24-well plates at 75 000 cells per ml. […] Control cells were plated in a concentration of 45 000 cells per ml, 4 days before tracer uptake. Cell culture medium was replaced 4 h before adding PET tracers. For FDG plates, medium was replaced with medium without glucose (+IC50 drugs concentration), as glucose competes with FDG uptake. For FLT plates, medium was replaced with medium without L-glutamine (+IC50 drugs concentration). The presence of L-glutamine in the culture medium may reduce FLT uptake, as glutamine is a source of thymidine monophosphate competing with FLT uptake through the de novo pathway.
(§6) One MBq per well FDG or FLT was added to the cells and incubated for 60 min at 37°C. After removal of excess tracer, cellular tracer uptake was determined with an ECAT Exact HR+ PET scanner (Siemens/CTI, Knoxville, TN, USA). Images were analysed using CAPP software (version 7.2, CTI/Siemens, Knoxville, TN, USA). Regions of interest (ROI) were drawn manually in a plane with visible tracer uptake. Next, ROIs were copied to all other planes and total activity per well was calculated and plotted against exact number of cells. Tracer uptake was also determined in an identical plate using the single-well gamma counter. Tracer uptake was corrected for the number of cells.

Data set [6] deals with MDA MB231 cells. The data set can be described thus: Cytotoxicity by sulforhodamine (SRB) assay. The format is cell-based. As to conditions: Homo sapiens, MDA-MB-231, 72 h drug incubation, read-out: IC50 (50% reduction in growth). As to the method:
The human breast cancer cell line MDA MB231 (ATCC no. HTB-26) and CEM leukaemia cells (CEM wild type and TK-deficient CEM/TK-) were cultured in RPMI 1640 supplemented with 10% foetal bovine serum and 1% penicillin/streptomycin (P/S), at 5% CO2 in a humidified atmosphere at 37°C. Cell counting was performed with a Casy cell counter (Schärfe System GmbH, Reutlingen, Germany).
Cytotoxicity to 5-FU (Sigma Chemical Co., MO, St Louis, USA), doxorubicin (doxorubicin hydrochloride, Pfizer, Cappelle a/d IJssel, The Netherlands) and paclitaxel (Sigma Chemical Co.) was determined by sulforhodamine (SRB) assay. Briefly, cells were plated in 96-well plates and after 24 h, drugs were added at various concentrations, incubated for 72 h and the SRB assay was performed as described previously ([de Bruin et al, 2003]). The IC50 is the concentration resulting in 50% reduction in growth compared with untreated control cells.

Data set [7] relates to Thymidine kinase (TK) activity in MDA MB231 breast cancer cells. Description: TK enzyme activity (FLT phosphorylation) in lysates of drug-treated cells. The format is cell-based, human. As to conditions: 48 and 72 h, IC50 concentration; effects minor. The procedure: . Enzyme activity was also analysed in CEM cells and in the corresponding TK-1-deficient subtype to assess whether FLT phosphorylation only occurs in the presence of sufficient cytosolic TK-1.
as §1
3′-deoxy-3′-[^18F]fluorothymidine was diluted with 50 mM Tris/1 mM EDTA (pH 7.4) and 1 : 1 mixed with 20 mM ATP, 10 mM MgCl2, resulting in an FLT concentration of about 60 MBq ml^−1 (6.32–18.89 pmol per sample). […] .
as §3, with “USA).” for “USA). Thymidine kinase activity was calculated as the amount of FLT converted into FLT-phosphate per hour per million cells (nmol h^−1 10^−6 cells).”

The test system of data set [8] is MDA MB231 cells. Description: Cell cycle analysis after exposure to IC50 drug concentrations. The format is cell-based, human. As to the method:
For cell cycle analysis, cells were exposed to IC50 concentrations of the various drugs for 4, 24, 48 or 72 h, fixed in 70% ethanol (1 × 10^6 cells per ml) and stored at 4°C until analysis, as described previously ([Temmink et al, 2007]) according to a slightly modified protocol.

In data set [9] the test system is TK-1 protein levels of MDA MB231 cells. Description: TK-1 protein levels by Western blot. As to conditions: IC50 concentration. (In western blotting, separated proteins are transferred to a membrane and probed.)
Description: For detection of TK-1 protein expression, cell pellets were dissolved in lysis buffer containing 10 mM Tris/5 mM EDTA (pH 7.5), 10% glycerol, 150 mM NaCl, 50 mM β-mercapto-ethanol, 1% Triton X-100, 4% protease inhibitor cocktail (PIC, Boehringer, Germany) and 1 mM NaVO3, sonificated on ice, spun down and the supernatant stored at −80°C until use.
Data set [10] concerns MDA MB231 cells. Description: Cellular FLT uptake after drug incubation. The format is cell-based, human. As to conditions: IC50 concentration. As to the method:
as §5, §6

Substrate in data set [11]: Cc1cn([C@H]2C[C@H](O)[C@@H](CO)O2)c(=O)[nH]c1=O
Description: Phosphorylation of [CH3-3H]dThd by recombinant TK-2. As to conditions: other: TK-2, Lineweaver–Burk; pH 8.0; 37.0 °C. The format is biochemical. The procedure:
as §4

In general, IC50 refers to the point on the concentration scale where inhibition reaches its midpoint. In the case of `Nc1ccn([C@H]2C[C@H](O)[C@@H](COP(=O)(O)OP(=O)(O)OP(=O)(O)O)O2)c(=O)n1` [dCTP], the “inhibition of cellular TK activities” value in data set [1] was 55–90%. Further, the “inhibition of FLT phosphorylation by TK-2” value on purified TK-2 (dCTP 10 mM) turned out to be 97%. Moreover, the IC50 in [2] (TK-2, 1 μM [CH3-3H]dThd as substrate) was about 50 µM; in [3] (TK-1, 1 μM [CH3-3H]dThd as substrate), about 5 µM.

As a reminder, the Ki is the equilibrium dissociation constant of an inhibitor or competing ligand from its target. Take `Cc1cn([C@H]2C[C@H]([18F])[C@@H](CO)O2)c(=O)[nH]c1=O` [FLT, 3′-deoxy-3′-[^18F]fluorothymidine]: the “conversion of FLT into FLT-phosphate” value at purified TK-2 (FLT added to purified TK-2) is on record as 8%. Also, in the data set on MDA MB231 cells [4], the “cellular radioactivity as unphosphorylated FLT” value is reported as “less than 20%” and the “cellular radioactivity counts due to FLT phosphate” value is “more than 80%”. In addition, the Ki/Km in data set [2] (TK-2) was 3.2. The Ki in data set [2] (TK-2, competitive vs dThd, read-out: Ki FLT) came to 4.2 µM. For the same molecule, the Ki in [3] (TK-1, competitive vs dThd, read-out: Ki FLT) is 1.9 µM.

Take `CC(=O)O[C@H]1C(=O)[C@@]2(C)[C@H]([C@H](OC(=O)c3ccccc3)[C@]3(O)C[C@H](OC(=O)[C@H](O)[C@@H](NC(=O)c4ccccc4)c4ccccc4)C(C)=C1C3(C)C)[C@]1(OC(C)=O)CO[C@@H]1C[C@@H]2O` [paclitaxel]: the “Mean (±s.d.) change in FDG uptake compared with untreated cells (set to 100%)” value was found to be 105±41% in the data set with MDA MB231 cells [5] (4 h), 125±99% in the data set on MDA MB231 cells [5] (24 h), 207±163% with MDA MB231 cells [5] (48 h) and 228±182% with MDA MB231 cells [5] (72 h). For the same molecule, the “increase in FDG uptake” value with MDA MB231 cells [5] (after 48 h (at 48 and 72 h)) is recorded as over 100%. For the same molecule, the IC50 with MDA MB231 cells [6] is 0.0025 µM. Moreover, in data set [7], the “TK activity compared with untreated cells (in words)” value is reported as “increased TK activity”. The “increase in G2/M phase” value in the data set on MDA MB231 cells [8] (4 h drug incubation, IC50 concentration) worked out at 1.2 fold. In addition, the “cell cycle effect (in words)” value in the data set on MDA MB231 cells [8] (at IC50 concentrations) is “G2/M accumulation”. Moreover, the “Mean (±s.d.) change in TK-1 protein levels compared with untreated cells (set to 100%)” value worked out at 103±6% in data set [9] (4 h), 62±4% in data set [9] (24 h), 54±16% in [9] (48 h) and 52±32% in data set [9] (72 h). The “decrease in TK-1 levels” value in data set [9] (at 48 h) was over 40%. The “Mean (±s.d.) change in FLT uptake compared with untreated cells (set to 100%)” value was 108±2% with MDA MB231 cells [10] (4 h), 112±54% with MDA MB231 cells [10] (24 h), 118±14% in the data set on MDA MB231 cells [10] (48 h) and 166±18% in the data set on MDA MB231 cells [10] (72 h). Also, in the data set on MDA MB231 cells [10] (72 h), the “increase in FLT uptake” value was determined as 66%. Besides, in the data set with MDA MB231 cells [10] (abstract), the “FLT uptake change (in words)” value is listed as “hardly changed”.

B1: recombinant mitochondrial TK-2 (Homo sapiens) (protein)
chain: VQRRAWPPDKEQEKEKKSVICVEGNIASGKTTCLEFFSNATDVEVLTEPVSKWRNVRGHNPLGLMYHDASRWGLTLQTYVQLTMLDRHTRPQVSSVRLMERSIHSARYIFVENLYRSGKMPEVDYVVLSEWFDWILRNMDVSVDLIVYLRTNPETCYQRLKKRCREEEKVIPLEYLEAIHHLHEEWLIKGSLFPMAAPVLVIEADHHMERMLELFEQNRDRILTPENRKHCP
The term Km denotes the substrate concentration at which the rate is half of its maximum. Take B1: the Km in [11] was 1.3 µM.
